Measurements taken from ChEMBL document CHEMBL5244275, “Geminal Diheteroatomic Motifs: Some Applications of Acetals, Ketals, and Their Sulfur and Nitrogen Homologues in Medicinal Chemistry and Drug Design” (J Med Chem, 2021).
Converted amounts (≈) assume the structure as drawn. Each block holds one compound with its values, some of them ahead of it. Numbered stars: 1 amine (or outer) side, 2 acyl side, 3 side chain; on linkers, the order of the positions; unused ones are H or OH. Bridge positions count the residues as written; N and C are the ends. Square brackets hold non-standard residues; d marks the D form. Peptide text beside a SMILES is read from it. * marks the point of attachment. Orn(4R-OH,5R-OH) = O=C([C@H](C[C@@H](O)[C@@H](O)N[*:3])N[*:1])[*:2]; Tetradecanoyl(10R,12S-Me2) = CC[C@H](C)C[C@H](C)CCCCCCCCC(=O)*; hTyr(3S-OH,4S-OH) = N[C@H](C(=O)O)[C@H](O)[C@@H](O)c1ccc(O)cc1; Gln(3R-OH) = NC(=O)C[C@@H](O)[C@H](N)C(=O)O; Pro(3S-OH) = O=C(O)[C@H]1NCC[C@@H]1O; Hyp = O=C(O)[C@@H]1C[C@@H](O)CN1

Experiments:
[1] = Aqueous stability of the compound assessed as acid-catalyzed decomposition by measuring rate constant; format: physicochemical; settings: buffer
[2] = Stability of the compound at pH 8 assessed as compound hydrolysis by measuring half-life; format: physicochemical; settings: buffer
[3] = molecular target: T1, Neutrophil elastase (Homo sapiens) (UniProt P08246); experiment: Time-dependent inhibition of human leukocyte elastase assessed as observed binding constant
T1 sequence (whole entry): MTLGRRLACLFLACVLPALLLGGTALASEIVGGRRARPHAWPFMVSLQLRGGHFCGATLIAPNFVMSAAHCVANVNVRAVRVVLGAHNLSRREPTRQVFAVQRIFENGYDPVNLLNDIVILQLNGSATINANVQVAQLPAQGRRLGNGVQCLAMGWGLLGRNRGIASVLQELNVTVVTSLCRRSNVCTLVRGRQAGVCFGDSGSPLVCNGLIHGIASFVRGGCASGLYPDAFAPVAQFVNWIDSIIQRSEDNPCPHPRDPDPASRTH

[4] = Stability of the compound assessed as acid hydrolysis by measuring half-life; format: physicochemical
[5] = tested on: Hepatitis C virus; experiment: Antiviral activity against Hepatitis C virus genotype 1a harboring NS5A Y93H mutant; format: functional, organism-based, Hepacivirus hominis
[6] = Aqueous solubility of compound; format: physicochemical; settings: aqueous (not further specified)
[7] = Oral bioavailability in rat; format: ADME, organism-based; settings: in vivo
[8] = molecular target: Human immunodeficiency virus type 1 protease (Human immunodeficiency virus 1, UniProt Q72874); experiment: Inhibition of HIV-1 protease
[9] = Stability of the compound at pH 1 assessed as half-life; format: physicochemical; settings: buffer
[10] = Dissociation constant, pKa of the compound; format: physicochemical
[11] = Inhibition of Calcium channel (unknown origin); design: species or system Homo sapiens
[12] = Inhibition of Leukotriene B4 production in human blood Polymorphonuclear neutrophil cells; format: functional, tissue-based
[13] = tested on: Candida albicans; experiment: Antifungal activity against Candida albicans GS; format: functional, organism-based
[14] = tested on: Candida albicans; experiment: Fungicidal activity against Candida albicans; format: functional
[15] = Stability of the compound in 20% aqueous dioxane solution at 30 degreeC assessed as compound hydrolysis by measuring rate constant; format: physicochemical; settings: buffer
[16] = tested on: Plasmodium falciparum; experiment: Antiplasmodial activity against Plasmodium falciparum FcM29 assessed as inhibition of plasmodial growth; format: functional, organism-based
[17] = Cmax in rat plasma at 20 mg/kg, po; format: ADME, organism-based; design: dose 20 mg/kg, route po
[18] = Oral bioavailability in dog; format: ADME, organism-based, Canis lupus familiaris; settings: in vivo
[19] = tested on: Escherichia coli; experiment: Inhibition of Escherichia coli beta-lactamase at 1 uM relative to control
[20] = tested on: Human immunodeficiency virus 1; experiment: microbe, parasite or virus in culture; settings: Human immunodeficiency virus 1, LAV
[21] = tested on: Plasmodium falciparum; experiment: Antiplasmodial activity against Plasmodium falciparum W2 assessed as inhibition of parasite growth; format: functional, organism-based
[22] = Stability of the compound in 0.01 N HCL at pH 2.0 assessed as half-life; format: physicochemical
[23] = Oral bioavailability in human; format: ADME, organism-based; settings: in vivo
[24] = tested on: Mus musculus; experiment: Antiinflammatory activity in LPS-induced Balb/c mouse model assessed as reduction in TNF-alpha release administered orally for 30 mins followed by LPS-stimulation and measured after 90 mins by ELISA analysis; format: functional; settings: 2 h, route po, time 120 min

SMILES: Clc1ccc(C2OCCS2)cc1 (stereo unspecified)
- K [1]: 0.00978 min⁻¹

SMILES: COC(=O)N[C@H](C(=O)N1CCC[C@H]1c1ncc(-c2ccc3c(c2)OCn2c-3cc3cc(-c4cnc([C@@H]5CCCN5C(=O)[C@@H](NC(=O)OC)C(C)C)[nH]4)ccc32)[nH]1)C(C)C
- EC50 [5]: 5 nM

SMILES: O=C1CCC2(CC1)OOC1(O2)C2CC3CC(C2)CC1C3 (stereo unspecified)
- solubility [6]: < 0.001 mg/mL
- bioavailability [7]: < 1%

SMILES: CC(C)CN(C[C@@H](O)[C@H](Cc1ccccc1)NC(=O)O[C@H]1C2CO[C@H]3OCC1C3C2)S(=O)(=O)c1ccc2oc(NC3CC3)nc2c1 (stereo partly specified)
- IC50 [8]: 0.26 nM

SMILES: FC(F)(F)c1cc(CO[C@H]2CCCN[C@H]2c2ccccc2)cc(C(F)(F)F)c1
- pKa [10]: 8.3
- IC50 [11]: 780 nM

SMILES: CC[C@H](C)C[C@H](C)CCCCCCCCC(=O)N[C@H]1C[C@@H](O)[C@@H](O)NC(=O)[C@@H]2[C@@H](O)CCN2C(=O)[C@H]([C@H](O)CC(N)=O)NC(=O)[C@H]([C@H](O)[C@@H](O)c2ccc(O)cc2)NC(=O)[C@@H]2C[C@@H](O)CN2C(=O)[C@H]([C@@H](C)O)NC1=O ({Tetradecanoyl(10R,12S-Me2)}-[Orn(4R-OH,5R-OH)]T[Hyp][hTyr(3S-OH,4S-OH)][Gln(3R-OH)][Pro(3S-OH)]; lactam 1-C)
- IC50 [13]: 70 nM
- MFC [14]: 0.25 µg/mL (≈ 0.235 µM)

SMILES: Clc1ccc(C2(c3ccc(Cl)cc3)OCCO2)cc1
- K [15]: 3.3 10^-3/M/s

SMILES: CC(C)C1=C[C@H]2OC3(CCC(N[C@H]4CC[C@H](Nc5ccnc6cc(Cl)ccc56)CC4)CC3)OO[C@@]2(C)CC1 (stereo partly specified)
- IC50 [16]: 18 nM

SMILES: CCOC(OCC)(c1ccccc1)c1ccccc1
- K [15]: 4.3 10^-1/M/s

SMILES: C[C@@H]1CC[C@H]2[C@@H](C)C(=O)O[C@@H]3O[C@@]4(C)CC[C@@H]1[C@]32OO4 [ARTEMISININ]
- IC50 [21]: 2.8 nM
- half-life [22]: 24 h
- IC50 [16]: 7 nM

SMILES: C[S+]([O-])c1ccc(-c2nc(-c3ccncc3)c(-c3ccc(F)cc3)[nH]2)cc1 (stereo unspecified) [SB-203580]
- ED50 [24]: 10 mg/kg
- bioavailability [7]: 10%

SMILES: O=[N+]([O-])c1ccc(C2OCCS2)cc1 (stereo unspecified)
- K [1]: 0.00048 min⁻¹

SMILES: COc1ccc(S(=O)(=O)N(CC(C)C)C[C@@H](O)[C@H](Cc2ccccc2)NC(=O)O[C@H]2CO[C@H]3O[C@@H]4OCC[C@@H]4[C@H]32)cc1
- IC50 [8]: 1.8 nM

SMILES: c1ccc(C2OCCS2)cc1 (stereo unspecified)
- K [1]: 0.0194 min⁻¹

Other lines, results leading:

- half-life [2]: 8.6 h
- K [3]: 6.7 10^3/M/s
SMILES: CC[C@@H]1C(=O)N(C(C)=O)[C@H]1Oc1ccc(C(=O)O)cc1

- half-life [4]: > 1 min
SMILES: Nc1ncnc2c1ncn2[C@@H]1O[C@H](CO)C[C@@H]1F [LODENOSINE]

- half-life [9]: 0.2 h
SMILES: Nc1ccn([C@H]2C=C[C@@H](CO)O2)c(=O)n1

- IC50 [12]: 6 nM
SMILES: O=C1OCc2c1cc1cc(OCc3cccc(C4(O)CC5COC(C4)O5)c3)ccc1c2-c1ccccc1 (stereo unspecified)

- half-life [9]: 15 h
SMILES: O=c1ccn([C@H]2C=C[C@@H](CO)O2)c(=O)[nH]1

- Cmax [17]: 5 µM
- bioavailability [18]: 73%
- bioavailability [7]: 26%
SMILES: N#Cc1cc(-c2ccoc2)c2ccc(OCc3cccc(C4(O)CC5COC(C4)O5)n3)cc2c1 (stereo unspecified)

- inhibition [19]: 100%
SMILES: CC1(C)[C@H](C(=O)O)N2C(=O)/C(=C/c3ccccn3)[C@H]2S1(=O)=O

- EC50 [20]: 840 nM
SMILES: Nc1nc(=O)n([C@H]2CS[C@@H](CO)O2)cc1F

- half-life [9]: 26 h
SMILES: Cc1cn([C@H]2C=C[C@@H](CO)O2)c(=O)[nH]c1=O [STAVUDINE]

- inhibition [19]: 81%
SMILES: O=C(O)[C@H]1/C(=C/CO)O[C@@H]2CC(=O)N21

- solubility [6]: 70 mg/mL (≈ 198000 µM)
- bioavailability [23]: 65%
SMILES: CC(C)[C@H](N)C(=O)OCC(CO)OCn1cnc2c(=O)nc(N)[nH]c21 (stereo partly specified) [VALGANCICLOVIR]

- inhibition [19]: 28%
SMILES: CC1(C)[C@H](C(=O)O)N2C(=O)/C(=C/c3ccccc3)[C@H]2S1(=O)=O
